In brackets after ≈: the same amount, converted by molar mass.

For two compounds, MIC results are on record in ChEMBL document CHEMBL4325868, “Design, synthesis and antitubercular activity of 4-alkoxy-triazoloquinolones able to inhibit the M. tuberculosis DNA gyrase” (Eur J Med Chem, 2019).

Common to all, as to format: functional
For assay [1], the system named is Mycobacterium tuberculosis. Put plainly: Antitubercular activity against multidrug resistant Mycobacterium tuberculosis isolate 512 after 7 days by resazurin microtiter assay. As to conditions: isolate 512, 168 h. Background: Alamar Blue is a resazurin reagent that responds to reducing activity.
The test system of assay [2] is Mycobacterium tuberculosis. Put plainly: Antitubercular activity against multidrug resistant Mycobacterium tuberculosis isolate 571 after 7 days by resazurin microtiter assay. The settings on record: isolate 571, 168 h.
Assay [3] deals with Mycobacterium tuberculosis. Put plainly: Antitubercular activity against rifampicin/ethambutol resistant Mycobacterium tuberculosis isolate 1726 after 7 days by resazurin microtiter assay. The settings on record: isolate 1726, 168 h.
For assay [4], the system named is Mycobacterium tuberculosis. As to the kind of experiment: Antitubercular activity against streptomycin resistant Mycobacterium tuberculosis isolate 203 after 7 days by resazurin microtiter assay. The settings on record: isolate 203, 168 h.
Assay [5] relates to Mycobacterium tuberculosis. As to the kind of experiment: Antitubercular activity against ciprofloxacin resistant Mycobacterium tuberculosis isolate 600 after 7 days by resazurin microtiter assay. The settings on record: isolate 600, 168 h.
In assay [6] the test system is Mycobacterium tuberculosis. As to the kind of experiment: Antitubercular activity against streptomycin/isoniazid/ethambutol resistant Mycobacterium tuberculosis isolate 1097 after 7 days by resazurin microtiter assay. As to conditions: isolate 1097, 168 h.
Assay [7] has as its system Mycobacterium tuberculosis. Put plainly: Antitubercular activity against streptomycin resistant Mycobacterium tuberculosis isolate 157 after 7 days by resazurin microtiter assay. The settings on record: isolate 157, 168 h.
Assay [8] relates to Mycobacterium tuberculosis. As to the kind of experiment: Antitubercular activity against isoniazid/ethambutol resistant Mycobacterium tuberculosis isolate 368 after 7 days by resazurin microtiter assay. As to conditions: isolate 368, 168 h.
The test system of assay [9] is Mycobacterium tuberculosis. Put plainly: Antitubercular activity against rifampicin resistant Mycobacterium tuberculosis isolate 952 after 7 days by resazurin microtiter assay. The settings on record: isolate 952, 168 h.
The subject of assay [10] is Mycobacterium tuberculosis. As to the kind of experiment: Antitubercular activity against multidrug resistant Mycobacterium tuberculosis isolate 1120 after 7 days by resazurin microtiter assay. As to conditions: isolate 1120, 168 h.
Assay [11] relates to Mycobacterium tuberculosis. As to the kind of experiment: Antitubercular activity against isoniazid resistant Mycobacterium tuberculosis isolate 1358 after 7 days by resazurin microtiter assay. The settings on record: isolate 1358, 168 h.
For assay [12], the system named is Mycobacterium tuberculosis. Put plainly: Antitubercular activity against streptomycin resistant Mycobacterium tuberculosis isolate 204 after 7 days by resazurin microtiter assay. As to conditions: isolate 204, 168 h.
Assay [13] deals with Mycobacterium tuberculosis. Put plainly: Antitubercular activity against ciprofloxacin resistant Mycobacterium tuberculosis isolate 1670 after 7 days by resazurin microtiter assay. As to conditions: isolate 1670, 168 h.
Assay [14] has as its system Mycobacterium tuberculosis. Put plainly: Antitubercular activity against multidrug resistant Mycobacterium tuberculosis isolate 7 after 7 days by resazurin microtiter assay. The settings on record: isolate 7, 168 h.

For `COc1cc2c(=O)c(C(=O)O)cn(C)c2c2nnn(C)c12`, the minimal inhibitory concentration (MIC) (in general, the smallest concentration in the dilution series that meets the test's criterion for growth inhibition) in [1] was found to be 8 µM (≈ 2.31 µg/mL); in [2], 16 µM (≈ 4.61 µg/mL); in assay [3], 16 µM (≈ 4.61 µg/mL); in [4], 16 µM (≈ 4.61 µg/mL); in assay [5], 16 µM (≈ 4.61 µg/mL); in assay [6], 32 µM (≈ 9.22 µg/mL). In addition, the MIC in [7] is 8 µM (≈ 2.31 µg/mL); in [8], 8 µM (≈ 2.31 µg/mL); in [9], 32 µM (≈ 9.22 µg/mL); in assay [10], 4 µM (≈ 1.15 µg/mL); in assay [11], 16 µM (≈ 4.61 µg/mL); in assay [12], 8 µM (≈ 2.31 µg/mL). For the same compound, the minimum inhibitory concentration (MIC) in assay [13] came out at 16 µM (≈ 4.61 µg/mL); in assay [14], 4 µM (≈ 1.15 µg/mL).

`O=C(O)c1cn(C2CC2)c2cc(N3CCNCC3)c(F)cc2c1=O` [CIPROFLOXACIN]: the values for the minimum inhibitory concentration (MIC) in assay [1], in assay [5] and in assay [13] were 8 µM (≈ 2.65 µg/mL), 4 µM (≈ 1.33 µg/mL) and 16 µM (≈ 5.3 µg/mL), respectively.
